The values that follow come from a melting point compilation (Tetko et al.; mined from patent text by program, amines drawn as free bases though some values may be those of a salt).

The compound `CNC(=O)N(N)c1nnc(C(C)(C)C)s1` showed a melting point of 141 to 142 °C. Consider `C=CCc1c(OC(C)=O)c2cccnc2n(-c2ccccc2)c1=O`, for which the melting point lay in the range of 189 to 195 °C. `COC(=O)c1cc(Cl)ccc1NC(=O)N(C)C` displayed a melting point of 114 °C. `O=C1[C@H](O)CCN1CC#CCN1CCCC1`: the melting point lay in the range of 81 to 85 °C. Under `O=C(Nc1ccccc1OCc1ccccc1)c1nnnn1Cc1ccccc1` stands 140 to 142 °C. Under `COc1ccc(Sc2[nH]c3cccc4c3c2CC2C4C=C(C)CN2C)cc1` (configuration not stated) stands above 250 °C.

For the compound `Cc1ccc(Oc2ccc(C(F)(F)F)cc2Cl)cc1C(=O)O`, the melting point came to 113 °C. The compound `O=C(NC1CCN(CCCc2ccc(Cl)cc2)C1)C12CC3CC(CC(C3)C1)C2` (configuration not stated) had a melting point of 117 to 119 °C. Compound `CCOc1ccccc1-c1ncc(C(=O)O)c(=O)[nH]1` showed a melting point of 168 to 184 °C. The result for `CCOC(=O)c1ccc(C2=CCCc3ccccc32)cc1` reads 81 °C. The result for `Cc1ccc(S(=O)(=O)NCC(Cc2ccccc2)NS(=O)(=O)c2ccc(C)cc2)cc1` (configuration not stated) reads 128 to 131 °C. Under `CC(=O)N=C1C(OC(C)=O)=C(NC(C)=O)C2CC(=O)CC1C2NC(C)=O` (configuration not stated) stands 174 to 176 °C; under `CS(=O)(=O)c1ccc(-c2n[nH]c(C(F)(F)F)c2-c2ccc(F)cc2)cc1`, 219 to 220 °C; under `C=C(C(=O)c1ccc(OC)c(Cl)c1Cl)c1ccc(Br)cc1`, 110 to 116 °C. The compound `CNC(=S)C1(c2cccnc2)CCCS1` (configuration not stated) came in with a melting point of 133 °C. `CCCCOc1ccc2c(c1)C(N(CC(=O)NC(=N)N)S(C)(=O)=O)CC(C)(C)O2` (configuration not stated) registered a melting point of 112 to 114 °C. Under `O=C1Nc2ccccc2N2CCN(CCc3ccncc3)CC12` (configuration not stated) stands 184 to 186 °C. The result for `COC(=O)c1ccc2ccc(C#N)cc2c1` reads 136 °C.

In the case of `C=CCc1c(C=O)cccc1OCc1ccccc1`, the melting point was 66 to 67 °C. Under `CCOC(=O)c1ccc(OCCc2c[nH]cn2)cc1` stands 160 to 164 °C. As to `COc1cc(C(C)C)c(NC(=O)CN2CCN(CCSc3nc4cccc([N+](=O)[O-])c4o3)CC2)c(C(C)C)c1`, the melting point fell in the range of 165 to 166 °C. The result for `Cc1c(-c2cccnn2)ssc1=S` reads 193 °C. In turn, `COC(=O)C1=C(C)NC(C)=C(C(=O)OCC2COC3(CCCC3)O2)C1c1cccc([N+](=O)[O-])c1` (configuration not stated) registered a melting point of 58 to 67 °C. Under `O=C(NC(=O)c1ccccc1Cl)Nc1ccc(-n2cccc2)c(Cl)c1` stands 169 to 170 °C; under `CCCc1c(OCc2ccc(C(=O)O)c(Br)c2)ccc(C(C)=O)c1O`, 80 to 83 °C. The result for `C[C@H]1CC[C@@H](OC(=O)c2nc(Cl)n3c2[C@@H]2CCCN2C(=O)c2ccccc2-3)CC1` reads 176 to 177 °C. Under `CN1Cc2cccc3c2c(cn3C)S1(=O)=O` stands 190 °C; under `Cc1ccc(C)n1-c1c(C(C)C)cc([N+](=O)[O-])cc1C(C)C`, 125 to 132 °C. As for `Cc1nc(-c2ccc(C(F)(F)F)cc2)sc1C(=O)Nc1cc(Cl)ccc1-c1nnn[nH]1`, the melting point is 325 to 337 °C. For `COc1cc(C=O)c(C=O)cc1OCCCl`, the melting point is 113 to 114 °C. With `Oc1ccc(-c2cc3c(Br)c(O)ccc3o2)cc1`, the melting point was in the range of 196 to 198 °C.

The compound `COC(=O)c1cc(OCc2cn(-c3ccc(C(F)(F)F)cn3)nc2C(C)C)nn1C` displayed a melting point of 114 to 115 °C. Take `CCCCCCCCCCCCCCCCCCNC(=O)NCCN`: the melting point fell in the range of 108 to 127 °C. The result for `CSc1nc(Oc2ccccc2)c(C(=O)O)c(Oc2ccccc2)n1` reads 97 to 98 °C; that for `CCCCCOc1ccc(C=O)cc1O`, 55 to 56 °C. The result for `O=[N+]([O-])c1cccc(O)c1O` reads 82 to 85 °C. Under `CCOC(=O)n1nc(Oc2c(F)cc(C(F)(F)F)cc2Cl)cc1C` stands 127 to 129 °C.
